According to US10080748B2, “Use of flap inhibitors to reduce neuroinflammation mediated injury in the central nervous system” (Bioscience Pharma Partners, LLC, priority 2014, dated 2018):

What was measured:
[1] = test system: rats subjected to FPI (TBI model); experiment: Gd-enhanced T1-weighted MRI, BBB disruption 72 hours after TBI (rat FPI); format: in vivo
Protocol: Craniotomy and lateral fluid percussion injury (FPI) were performed using a previously validated and published procedure. Farias S, et al. J. Neurotraum, 26, 1977-1986, 2009; Frey L. C. et al. J. Neurosci. Methods 177, 267-272, 2009. Throughout the specification animals subjected to this protocol are referred to as having a TBI since this treatment protocol is a TBI model. Briefly, rats were anesthetized with 3-5% isoflurane, isosol, VEDCO Inc., St. Joseph, Mo., via nose cone and mounted in a stereotaxic head frame. A 3 millimeter (mm) craniotomy was created and centered at 3 mm caudal to bregma and 3.5 mm left of the sagittal suture, keeping the exposed dura intact. One steel support screw was embedded in the skull on the contralateral side. A Luer-Lock hub with an inside diameter of 3.5 mm was centered over the craniotomy and bonded to the skull with cyanoacrylate adhesive and capped. Dental acrylic, Snap, Parka, Inc., Edgewood, N.J., was poured around the huh and screw. After the acrylic hardened antibiotic ointment was applied around the cap and the animals were returned to their cages. The next day, approximately 15-20 hours later, animals were anesthetized with isoflurane in an induction chamber, immediately connected to the FPI apparatus, and received a 20 millisecond (ms) pulse of pressurized sterile saline at 2.7 atmospheres (atm) of pressure to simulate a moderate severity impact on the intact dural surface through the craniotomy before awakening from anesthesia. […] All animals received a subcutaneous injection of the analgesic, buprenorphine, 0.05 milligram/kilogram (mg/kg) Buprenex, prior to craniotomy, and subsequent injections every 12 hours for two days. Moistened food pellets were provided after injury, and all animals were monitored daily for well-being and weight changes. […]
The effect of leukotrienes on TBI-related BBB disruption was assessed using Gd-enhanced T1-weighted MRI 72 hours after TBI in rats. […]

[2] = test system: leukotriene LTC4 production; experiment: LTC4 levels in brain after rat fluid percussion injury (RP LC-MS/MS); format: in vivo
Protocol: Craniotomy and lateral fluid percussion injury (FPI) were performed using a previously validated and published procedure. Farias S, et al. J. Neurotraum, 26, 1977-1986, 2009; Frey L. C. et al. J. Neurosci. Methods 177, 267-272, 2009. Throughout the specification animals subjected to this protocol are referred to as having a TBI since this treatment protocol is a TBI model. Briefly, rats were anesthetized with 3-5% isoflurane, isosol, VEDCO Inc., St. Joseph, Mo., via nose cone and mounted in a stereotaxic head frame. A 3 millimeter (mm) craniotomy was created and centered at 3 mm caudal to bregma and 3.5 mm left of the sagittal suture, keeping the exposed dura intact. One steel support screw was embedded in the skull on the contralateral side. A Luer-Lock hub with an inside diameter of 3.5 mm was centered over the craniotomy and bonded to the skull with cyanoacrylate adhesive and capped. Dental acrylic, Snap, Parka, Inc., Edgewood, N.J., was poured around the huh and screw. After the acrylic hardened antibiotic ointment was applied around the cap and the animals were returned to their cages. The next day, approximately 15-20 hours later, animals were anesthetized with isoflurane in an induction chamber, immediately connected to the FPI apparatus, and received a 20 millisecond (ms) pulse of pressurized sterile saline at 2.7 atmospheres (atm) of pressure to simulate a moderate severity impact on the intact dural surface through the craniotomy before awakening from anesthesia. […] All animals received a subcutaneous injection of the analgesic, buprenorphine, 0.05 milligram/kilogram (mg/kg) Buprenex, prior to craniotomy, and subsequent injections every 12 hours for two days. Moistened food pellets were provided after injury, and all animals were monitored daily for well-being and weight changes.
Two groups of four rats each were subjected to FPI as described above. Four days prior to the FPI, each animal was briefly anesthetized for less than 5 minutes with 3-3.5% isoflurane and administered either NaCl 0.9%, 2 ml/kg IV (vehicle) or vinblastine sulfate 0.5 mg/kg IV in an identical volume. Neutrophil depletion was verified by complete cell blood counts (CBC) in vinblastine treated animals 4 days after administration. Both groups were euthanized by decapitation and the brain lipids extracted 1 hour after FPI. The amounts of LTC4 formed, measured by RP LC-MS/MS and normalized per milligram of protein, were compared between groups using one-way analysis of variance and the Student-Newman-Keuls test for multiple comparisons.
The indole FLAP inhibitor MK-886 was prepared at a dose of 2.5 milligram/milliliter (mg/ml), dissolved in dimethyl sulfoxide (DMSO) and then diluted with 0.9% saline to 10% DMSO. The rats were briefly anesthetized with 3-3.5% isoflurane and either […] at a dose of 6 mg/kg or vehicle was administered intravenously (IV) by tail vein injection. All animals were allowed to wake before undergoing additional procedures.
Cortical and hippocampal regions from ipsilateral and contralateral hemispheres were collected in 4 ml of 80% methanol, homogenized with a Dounee homogenizer, and internal standards were added to the homogenates. Protein content was measured using bicinchoninic acid assay (BCA) for protein to normalize lipid levels to the amount of tissue. Samples were centrifuged and the supernatant was collected. Samples were diluted to a final methanol concentration of lower than 15% and then the lipids were extracted using a solid phase extraction cartridge, Strata C18-E, 100 mg/1 ml, Phenomenex, Torrence Calif. The eluate, 1 ml of methanol, was dried down and reconstituted in 70 microliters (μl) of High Performance Liquid Chromotography (HPLC) solvent A, which is 8.3 mM acetic acid buffered to pH 5.7 with NH4OH, plus […] of solvent B, which is acetonitrile/methanol, 65/35, v/v. […]

[3] = MK-886 6 mg/kg IV 30 minutes prior to TBI, 1 hour after TBI
[4] = MK-886 6 mg/kg IV 30 minutes prior to TBI, measured 1 hour after TBI
[5] = single dose 15 minutes after TBI

CC(C)c1ccc2c(c1)c(SC(C)(C)C)c(CC(C)(C)C(=O)O)n2Cc1ccc(Cl)cc1 [MK-886, 1-[(4-Chlorophenyl)methyl]-3-[(1,1-dimethylethyl)thio]-α,α-dimethyl-5-(1-methylethyl)-1H-Indole-2-propanoic acid]
Gd extravasation ([1]; 15 min post-injury): no effect | Gd extravasation ([1]; 30 min pre-injury): no effect | Gd extravasation ([1]; 60 min post-injury): no effect | LTC4 levels lower than vehicle-treated injured animals, contralateral right hemisphere [2, 3]: 64% | LTC4 levels lower than vehicle-treated injured animals, ipsilateral left hemisphere [2, 3]: 85% | LTC4 level, contralateral right hemisphere [2, 4]: 2.6+/−0.80 pg/mg protein | LTC4 level, ipsilateral left hemisphere [2, 4]: 3.39+/−0.42 pg/mg protein | LTC4 level, ipsilateral cortex ([2]; MK-886-treated injured rats): undetectable | LTC4 level, ipsilateral hippocampus ([2]; MK-886-treated injured rats): undetectable | LTC4 level, contralateral hemisphere [2, 5]: below the detectable threshold | LTC4 level, ipsilateral hemisphere [2, 5]: below the detectable threshold
